Experimental data from US9216179B2, “Treatment of gout and hyperuricemia” (ARDEA BIOSCIENCES, INC., priority 2010, dated 2015).

Assays:
[1] = system: individuals treated with probenecid; conditions: in vivo; cited from earlier work
[2] = system: gout patients with sUA greater than 8 mg/dL; assay: Example 6: open-label clinical pharmacology study, combination with febuxostat; conditions: for increases in serum creatinine (Grade): human, in vivo
Procedure: Also provided herein in certain embodiments is an open-label, clinical pharmacology study including 2 cohorts of gout patients with sUA greater than 8 mg/dL on no urate-lowering therapy. In some embodiments, patients received colchicine beginning one week prior to baseline and continuing for 5 weeks for flare prophylaxis. In other embodiments, the first cohort of patients in the study consisted of gout patients with a median baseline sUA of 9.2 mg/dL who were administered 40 mg febuxostat for the first week, 40 mg febuxostat in combination with 400 mg of a compound of formula I for the second week, and then 40 mg febuxostat in combination with 600 mg of a compound of formula I for the third week. […] In some embodiments, less than 40 mg, greater than 40 mg, less than 80 mg, greater than 80 mg, or any suitable amount of febuxostat was administered.
This 21-patient, open-label, clinical pharmacology study included 2 cohorts of gout patients with sUA greater than 8 mg/dL on no urate-lowering therapy. All patients received colchicine beginning one week prior to baseline and continuing for 5 weeks for flare prophylaxis.

TNF-α = TNF-α production (FIG. 2); conditions: FIG. 2, 6 hour time point
IL-1 = IL-1 release/production after stimulation (FIG. 1, FIG. 3)
[3] = system: gout patients with elevated uric acid levels; conditions: for serious adverse events or deaths: Phase 2b study, 28 days
Procedure: In some embodiments, for patients randomized to receive 400 mg a compound of formula I and 600 mg of a compound of formula I, a daily dose of compound of formula I was escalated weekly in increments of 200 mg/day.

[4] = system: individuals treated with the drug; conditions: in vivo; cited from earlier work
gout patients = conditions: controlled trials; cited from earlier work
[5] = system: gout patients with sUA greater than 8 mg/dL; assay: Example 7: open-label clinical pharmacology study, combination with allopurinol; type: in vivo, human
Procedure: This 20-patient, open-label clinical pharmacology study included 2 cohorts of gout patients with sUA greater than 8 mg/dL on no urate-lowering therapy who began colchicine dosing one week prior to baseline and continued for 5 weeks. […] Elevations in CK and rhabdomyolysis are known side effects of colchicine.

Patients [6] = conditions: Allopurinol Alone
Procedure: B: Patients received allopurinol alone for one week. For the second week, Panel 1 received a compound of Formula I (400 mg) and Panel 2 received a compound of Formula I (600 mg) in combination with allopurinol 300 mg.

[7] = system: monosodium urate crystal-induced inflammatory response; assay: rat air pouch model of crystal-induced arthropathy; type: in vivo, Sprague-Dawley rats; conditions: PO 10, 30, 100 mg/kg; 150 mg MSU; FIGS. 4 and 5
Procedure: • 1. […] NaOH was added as required to maintain pH between 8-9. The solution was filtered and incubated at ambient with slow stirring continuously for 24 hours. • b. Crystals were washed, dried and sterilized by autoclaving. • c. Crystals were suspended in sterile saline at 0.67 mg/ml, 2.67 mg/ml and 10 mg/ml just prior to use. • 2. 110 Sprague-Dawley rats (male, 160-180 g) were obtained. Following quarantine, rats were accepted for the Study if no signs of clinical distress were noted during the 3-day quarantine period. The rats were maintained on certified laboratory diet and water ad libitum. • 3. The rats were ear-notched for individual identification. • 4. The rat weights were recorded. • 5. […] Exudates volume was measured and recorded for each animal. • a. […] Plasma extravasation was measured by optical absorbance at 620 nm for each exudate sample. • 14. […] Mean cell counts and standard deviations were determined for each group. • b. Mean optical absorbance measurements and standard deviations were determined for each group. • c. Group means and standard deviations for TNF-alpha and IL-1 were determined for each group. • d. Statistical significance of treatments on mean cell counts, mean optical absorbance measurements and mean cytokine measurements were determined by comparison of means for treatment and positive control groups with vehicle group.

Patients [8] = assay: Example 4 A: allopurinol 300 mg QD for 1 week followed by compound of Formula I, serum uric acid; type: in vivo, human
Procedure: A: Patients received allopurinol 300 mg QD for 1 week followed by a compound of Formula I. A compound of Formula I (200 mg) reduced serum uric acid levels 9% beyond the reduction observed for allopurinol alone. Titration up to 400 mg of a compound of Formula I provided further reduction of serum uric acid levels by 6%. The combination of a compound of Formula I (400 mg) and allopurinol provided 100% response (i.e., sUA <6 mg/dL) and an 80% sUA reduction below 5 mg/dL. These responses are illustrated in FIG. 6.

patients with gout = assay: Phase II gout dose response study, Lesinurad versus placebo (incidence of gout flares); type: in vivo, human
Procedure: Purpose: To compare the proportion of subjects whose serum urate (sUA) level is <6.0 mg/dL after 28 days of dosing by treatment group.
Official Title: Randomized, Double-Blind, Multicenter, Placebo-Controlled, Safety and Efficacy Study of Lesinurad Versus Placebo in the Treatment of Hyperuricemia in Patients With Gout
Experimental Dosage Form: 200 mg capsule of Lesinurad, with appropriate pharmaceutically acceptable excipients
Primary Outcome Measures: Compare the proportion of subjects whose serum urate (sUA) level is <6.0 mg/dL after 28 days of dosing by treatment group.
Secondary Outcome Measures: • Evaluate the proportion of subjects with sUA levels <6.0 mg/dL at each weekly study visit. • Evaluate absolute and percent reduction from baseline in sUA levels at each weekly study visit. • Evaluate the percent change in 24-hr urine urate level (excretion) from baseline to Day 28. • Evaluate the incidence of gout flares. • Evaluate the safety and tolerability of Lesinurad in subjects with gout.
Inclusion Criteria: • Male or post-menopausal or surgically sterile female. • Hyperuricemic (i.e., screening sUA ≧8 mg/dL). • Meets criteria for the diagnosis of gout as per the American Rheumatism Association (ARA) Criteria for the Classification of Acute Arthritis of Primary Gout (see Appendix B). • Willing and able to give informed consent and adhere to visit/protocol schedules (informed consent must be given before the first study procedure is performed).
Results: Incidence of gout flares are presented in Table 2 below indicating the majority of flares occurred in the first week when patients were receiving 200 mg QD (6/10 total flares on drug). Few additional flares occurred as dose increased, even with greater decrease in sUA. Duration of flares is shorter at higher doses, the opposite of what would be expected with greater reduction in sUA.

[9] = Cohort 1, febuxostat 40 mg alone
[10] = Cohort 2, febuxostat 80 mg alone
[11] = Placebo qd + allopurinol, sUA <6 mg/dL after 4 weeks
[12] = Cohort 1, allopurinol 300 mg alone
[13] = Cohort 2, allopurinol 300 mg alone

In the case of CCCN(CCC)S(=O)(=O)c1ccc(C(=O)O)cc1 [probenecid], the individuals developing intolerance [1] is given as “one-third” and the “individuals failing to achieve reduction of serum uric acid levels <6 mg/dL” value [1] is given as 25-50%.
For Cc1nc(-c2ccc(OCC(C)C)c(C#N)c2)sc1C(=O)O [febuxostat], the “Response rate (<6 mg/dL)” value ([2]; Cohort 1 (median baseline 9.2 mg/dL), febuxostat 40 mg alone) was 67%, the “Response rate (<6 mg/dL)” value ([2]; Cohort 1 (median baseline 9.2 mg/dL), febuxostat 40 mg alone, listed as Febuxostat) was 67% and the “Percent patients <4 mg/dL” value [2, 9] was 0%. For the same compound, the “Percent sUA change at trough (median, from baseline)” value (from here on “Percent sUA change at trough”) [2, 9] was −35%, the “Percent sUA change intraday (median, from baseline)” value (from here on “Percent sUA change intraday”) [2, 9] was −44% and the “Response rate (<6 mg/dL)” value ([2]; Cohort 2 (median baseline […]), febuxostat 80 mg alone) was 56%. The “Response rate (<6 mg/dL)” value ([2]; Cohort 2 (median baseline […]), febuxostat 80 mg alone, listed as Febuxostat) was 56%, the “Percent patients <4 mg/dL” value [2, 10] was 0% and the “Percent sUA change at trough” value [2, 10] was −47%. The “Percent sUA change intraday” value [2, 10] was −52% and the “patients achieving sUA levels below 4 mg/dL or below 3 mg/dL” value ([2]; either dose of febuxostat alone) was “No patient”.
In the case of COc1cc2c(c(OC)c1OC)-c1ccc(OC)c(=O)cc1[C@@H](NC(C)=O)CC2 [colchicine], the “increases in serum creatinine (Grade)” value [2] is reported as “one Grade 2 serum creatinine increase”.
With rilonacept the “production of TNF-α” value (TNF-α) was “inhibits” and the IL-1 production (IL-1; FIG. 3) was “does not reduce”.
For Oc1ncnc2[nH]ncc12 [allopurinol], the “serious adverse events or deaths” value [3] was “fatal myocardial infarction”, the “Mean Change in Serum Urate at Week 4 vs. Baseline on Allopurinol Alone” value ([3]; Placebo qd + allopurinol) was “+3%” and the “Response Rate (ITT Analysis)” value [3, 11] was 25%. The “Response Rate (LOCF Analysis)” value [3, 11] was 29%, the “patients who discontinued treatment due to an adverse event” value ([3]; human, in vivo) was “three” and the “incidence of side effects, of all individuals treated” value [4] was 20%. The “gout patients responding adequately (sUA less than 6 mg/dL)” value (gout patients) was 30-40%, the “patients achieving target sUA levels below 6 mg/dL” value ([5]; 300 mg allopurinol alone) was 20% and the “Response rate (<6 mg/dL)” value ([5]; Cohort 1 (median baseline 9.8 mg/dL), allopurinol 300 mg alone) was 10%. The “Percent patients <5 mg/dL” value [5, 12] was 5%, the “Percent sUA change at trough” value [5, 12] was −31% and the “Percent sUA change intraday” value [5, 12] was −38%. The “Response rate (<6 mg/dL)” value ([5]; Cohort 2 (median baseline 9.1 mg/dL), allopurinol 300 mg alone) was 30%, the “Percent patients <5 mg/dL” value [5, 13] was 5% and the “Percent sUA change at trough” value [5, 13] was −27%. The “Percent sUA change intraday” value [5, 13] was −35%, the “% Patients <4 mg/dL” value (Patients [6]) was 0% and the “% Patients <5 mg/dL” value (Patients [6]) was 9%. For the same compound, the “Response: % Patients <6 mg/dL” value (Patients [6]) was 63% and the “sUA Mean % Reduction” value (Patients [6]) was 32%.
With O=C([O-])CSc1nnc(Br)n1-c1ccc(C2CC2)c2ccccc12.[Na+] [compound 1, 2-(5-Bromo-4-(4-cyclopropylnaphthalen-1-yl)-4H-1,2,4-triazol-3-ylthio)acetate sodium salt] the “monosodium urate crystal-induced inflammatory response” value [7] was “blocked” and the “blocks IL-1 release, time after stimulation” value (IL-1; FIG. 1) was at most 1 h.
In the case of O=C(O)CSc1nnc(Br)n1-c1ccc(C2CC2)c2ccccc12 [Formula I, 2-(5-bromo-4-(4-cyclopropylnaphthalen-1-yl)-4H-1,2,4-triazol-3-ylthio)acetic acid], the “serious adverse events or deaths” value [3] is reported as “no serious adverse events or deaths”, the “reduction of serum uric acid levels beyond the reduction observed for allopurinol alone” value (Patients [8]; Formula I 200 mg after allopurinol 300 mg QD for 1 week) is reported as 9% and the “further reduction of serum uric acid levels” value (Patients [8]; titration up to 400 mg) is reported as 6%. The “additional sUA reduction compared to febuxostat alone” value ([2]; addition of 600 mg to 40 mg febuxostat) was 39%, the “additional sUA reduction compared to febuxostat alone” value ([2]; addition of 600 mg to 80 mg febuxostat) was 51% and the “increases in serum creatinine (Grade)” value [2] was “no Grade 2 or higher increases”. For the same compound, the “Percent patients <5 mg/dL” value ([5]; Cohort 1, 400 mg alone) was 0%, the “Percent sUA change at trough” value ([5]; Cohort 1, 400 mg alone) was −28% and the “Percent sUA change intraday” value ([5]; Cohort 1, 400 mg alone) was −44%. For the same compound, the “Response rate (<6 mg/dL)” value ([5]; Cohort 1, 400 mg alone) was 20%, the “Percent patients <5 mg/dL” value ([5]; Cohort 2, 600 mg alone) was 33% and the “Percent sUA change at trough” value ([5]; Cohort 2, 600 mg alone) was −39%. For the same compound, the “Percent sUA change intraday” value ([5]; Cohort 2, 600 mg alone) was −54%, the “Response rate (<6 mg/dL)” value ([5]; Cohort 2, 600 mg alone, listed as 2-(5-bromo-4-(4-cyclopropylnaphthalen-1-yl)-4H-1,2,4-triazol-3-ylthio)acetate) was 67% and the “serious adverse events or discontinuations considered possibly related” value ([5]; human, in vivo) was “no serious adverse events or discontinuations”. For the same compound, the “% of patients with Flares by Dose at Time of Flare” value (“% of patients with Flares by Dose” for short) (patients with gout; 200 mg at time of flare) was 6% (6/96), the “Mean Duration of Flares (by Dose at Time of Flare)” value (patients with gout; 200 mg at time of flare) was 4 days and the “% of patients with Flares by Dose” value (patients with gout; 400 mg at time of flare) was 2% (1/65). For the same compound, the “Mean Duration of Flares (by Dose at Time of Flare)” value (patients with gout; 400 mg at time of flare) was 2 days, the “% of patients with Flares by Dose” value (patients with gout; 600 mg at time of flare) was 9% (3/32) and the “Mean Duration of Flares (by Dose at Time of Flare)” value (patients with gout; 600 mg at time of flare) was 1.7 days. The “Mean Duration of Flares” value (patients with gout; Randomized Dose Group 200 mg) was 4 days, the “% Patients with Flares” value (patients with gout; Randomized Dose Group 200 mg qd for 28 days) was 6% and the “Mean Duration of Flares” value (patients with gout; Randomized Dose Group 400 mg) was 3.8 days. The “% Patients with Flares” value (patients with gout; Randomized Dose Group 400 mg (200 mg 7 days, 400 mg 21 days)) was 12%, the “Mean Duration of Flares” value (patients with gout; Randomized Dose Group 600 mg) was 1.5 days and the “% Patients with Flares” value (patients with gout; Randomized Dose Group 600 mg (200 mg 7 days, 400 mg 7 days, 600 mg 14 days)) was 13%.
